# Reference: patent US20150011508A1, “COMPOUNDS AND COMPOSITIONS AS C-KIT KINASE INHIBITORS” (priority 2011, published 2015)
# Molecular target: T1, c-kit (Homo sapiens, UniProt P10721)
# T1 construct: human Mo7e cells which endogenously express c-kit; endogenous in cells; host or cells: human Mo7e cells (SCF-dependent promegakaryocytic leukemia line)
# Test: Mo7e cell proliferation assay (SCF dependent proliferation)
# Assay type: cell-based
# Procedure, shortened: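 SCF-dependent proliferation of human Mo7e cells, which express c-kit endogenously, was measured after 48 h at 37° C by CellTiter Glo luminescence. IC50 was taken as the concentration giving a response halfway between the baseline and maximum responses.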
# [1] = Table 2, human Mo7e cells stimulated with human recombinant SCF, 48 h, CellTiter Glo, 1% FBS (footnote)
# [2] = Table 1, human Mo7e cells stimulated with human recombinant SCF, 48 h, CellTiter Glo, 1% FBS (footnote)
# T1 sequence (P10721 26-976): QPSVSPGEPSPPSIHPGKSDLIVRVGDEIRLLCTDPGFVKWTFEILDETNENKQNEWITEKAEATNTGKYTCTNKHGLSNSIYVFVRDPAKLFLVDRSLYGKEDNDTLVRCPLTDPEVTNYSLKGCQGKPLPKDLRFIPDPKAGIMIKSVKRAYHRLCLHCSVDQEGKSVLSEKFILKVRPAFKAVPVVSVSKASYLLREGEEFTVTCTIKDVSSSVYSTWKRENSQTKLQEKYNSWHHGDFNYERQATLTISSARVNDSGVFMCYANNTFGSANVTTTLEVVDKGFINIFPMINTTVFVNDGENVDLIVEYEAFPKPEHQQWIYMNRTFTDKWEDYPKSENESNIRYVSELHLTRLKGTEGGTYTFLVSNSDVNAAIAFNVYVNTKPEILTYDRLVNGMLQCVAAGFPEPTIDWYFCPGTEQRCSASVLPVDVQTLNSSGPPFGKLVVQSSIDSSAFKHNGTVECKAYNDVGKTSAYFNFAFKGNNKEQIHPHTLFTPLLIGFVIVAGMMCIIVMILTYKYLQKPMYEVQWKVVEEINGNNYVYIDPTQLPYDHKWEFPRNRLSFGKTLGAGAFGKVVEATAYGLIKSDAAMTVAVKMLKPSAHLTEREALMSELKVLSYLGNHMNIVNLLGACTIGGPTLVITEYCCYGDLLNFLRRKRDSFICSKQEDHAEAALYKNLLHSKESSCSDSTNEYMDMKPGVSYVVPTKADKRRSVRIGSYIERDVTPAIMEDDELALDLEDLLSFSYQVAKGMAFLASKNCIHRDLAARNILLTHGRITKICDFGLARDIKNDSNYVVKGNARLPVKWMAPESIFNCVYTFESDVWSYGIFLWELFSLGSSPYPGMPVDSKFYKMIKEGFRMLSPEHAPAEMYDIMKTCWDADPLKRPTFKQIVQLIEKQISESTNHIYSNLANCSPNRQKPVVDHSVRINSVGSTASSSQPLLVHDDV
IC50 [1] [nM],IC50 [2] [nM],Compound,other results
193,,Cc1nc(-c2ccc(C)c(NC(=O)c3cnc4ccc(-c5c(C)nn(CC(=O)NCCN6CCOCC6)c5C)cn34)c2)no1 [F239],
,36,Cc1ccc(-c2noc(CCC(F)(F)F)n2)cc1NC(=O)c1cnc2ccccn12 [F74],
2460,,Cc1nc(-c2ccc(C)c(NC(=O)c3cnc4ccc(-c5c(C)nn(CC(=O)O)c5C)cn34)c2)no1 [F235],
,80,CCOC(=O)NCc1nc(-c2ccc(C)c(NC(=O)c3cnc4ccccn34)c2)no1 [F29],
319,,COCC(=O)NCc1nc(-c2ccc(C)c(NC(=O)c3cnc4ccccn34)c2)no1 [F132],
184,,COC(=O)NCc1nc(-c2ccc(C)c(NC(=O)c3cnc4cc(F)ccn34)c2)no1 [F159],
,87,CCOC(=O)Cc1nc(-c2ccc(C)c(NC(=O)c3cnc4ccccn34)c2)no1 [F7],
,,COCc1noc(-c2ccc(C)c(NC(=O)c3cnc4ccccn34)c2)n1 [F108],"IC50 (Table 2, values marked *: 20% FBS instead of 1% FBS): 716 nM"
,11,Cc1ccc(-c2noc(C(C)OCC(F)(F)F)n2)cc1NC(=O)c1cnc2ccccn12 (stereo not shown) [F266],
112,,Cc1ccc(-c2noc(CCC(C)(C)O)n2)cc1NC(=O)c1cnc2ccccn12 [F119],
166,,COC(=O)N[C@@H](C)c1nc(-c2ccc(C)c(NC(=O)c3cnc4ccccn34)c2)no1 [F135],
,96,"Cc1nc(-c2ccc(C)c(NC(=O)c3cnc4ccc(-c5ccccc5C)cn34)c2)no1 [F81, N-(2-methyl-5-(5-methyl-1,2,4-oxadiazol-3-yl)phenyl)-6-(o-tolyl)imidazo[1,2-a]pyridine-3-carboxamide]",
965,,Cc1ccc(-c2noc(CNC(=O)N(C)C)n2)cc1NC(=O)c1cnc2ccccn12 [F164],
139,,COCCOCc1nc(-c2ccc(C)c(NC(=O)c3cnc4ccc(F)cn34)c2)no1 [F179],
173,,Cc1ccc(-c2noc(CNC(=O)C(C)(C)O)n2)cc1NC(=O)c1cnc2ccccn12 [F134],
689,,CC(=O)NCCc1nc(-c2ccc(C)c(NC(=O)c3cnc4ccccn34)c2)no1 [F113],
134,,COCCCN(Cc1nc(-c2ccc(C)c(NC(=O)c3cnc4ccccn34)c2)no1)C(=O)C(F)(F)F [F151],
,72,CCOCCOCc1nc(-c2ccc(C)c(NC(=O)c3cnc4ccccn34)c2)no1 [F32],
313,,Cc1ccc(-c2noc(NCC(C)(C)O)n2)cc1NC(=O)c1cnc2cc(F)ccn12 [F192],
134,,Cc1ccn2c(C(=O)Nc3cc(-c4noc(CC[C@](C)(OC(=O)[C@H](N)C(C)C)C(F)(F)F)n4)ccc3C)cnc2c1 [F252],
193,,COC(=O)N[C@H](C)c1nc(-c2ccc(C)c(NC(=O)c3cnc4ccccn34)c2)no1 [F137],
1460,,Cc1ccc(-c2noc(CNC(=O)CC(C)(C)O)n2)cc1NC(=O)c1cnc2ccccn12 [F223],
125,,Cc1nc(-c2ccc(C)c(NC(=O)c3cnc4ccc(-c5cnccn5)cn34)c2)no1 [F201],

IC50 [1] [nM],IC50 [2] [nM],Compound,other results
,78,Cc1ccc(-c2noc(CCC#N)n2)cc1NC(=O)c1cnc2ccccn12 [F1],
,89,"Cc1nc(-c2ccc(C)c(NC(=O)c3cnc4ccc(-c5nc(C)c(C(N)=O)s5)cn34)c2)no1 [F259, 4-methyl-2-(3-((2-methyl-5-(5-methyl-1,2,4-oxadiazol-3-yl)phenyl)carbamoyl)imidazo[1,2-a]pyridin-6-yl)thiazole-5-carboxamide]",
,83,"CCOC(=O)c1nc(C)c(-c2ccc3ncc(C(=O)Nc4cc(-c5noc(C)n5)ccc4C)n3c2)s1 [F261, ethyl 4-methyl-5-(3-((2-methyl-5-(5-methyl-1,2,4-oxadiazol-3-yl)phenyl)carbamoyl)imidazo[1,2-a]pyridin-6-yl)thiazole-2-carboxylate]",
803,,"Cc1ccc(-c2noc(CCC(N)=O)n2)cc1NC(=O)c1cnc2ccccn12 [F117, N-(5-(5-(3-amino-3-oxopropyl)-1,2,4-oxadiazol-3-yl)-2-methylphenyl)imidazo[1,2-a]pyridine-3-carboxamide]",
201,,Cc1ccc(-c2noc(C(C)(C)NC(=O)OC(C)(C)C)n2)cc1NC(=O)c1cnc2ccccn12 [F143],
,54,"CC(=O)c1sc(-c2ccc3ncc(C(=O)Nc4cc(-c5noc(C)n5)ccc4C)n3c2)nc1C [F256, 6-(5-acetyl-4-methylthiazol-2-yl)-N-(2-methyl-5-(5-methyl-1,2,4-oxadiazol-3-yl)phenyl)imidazo[1,2-a]pyridine-3-carboxamide]",
174,,Cc1ccc(-c2noc(CCCN)n2)cc1NC(=O)c1cnc2ccccn12 [F112],
,95,Cc1nc(-c2ccc(C)c(NC(=O)c3cnc4ccc(-c5cnn(CCN6CCOCC6)c5)cn34)c2)no1 [F51],
279,,COC(=O)NCc1nc(-c2ccc(C)c(NC(=O)c3cnc4cc(CCC(C)(C)O)ccn34)c2)no1 [F178],
,67,"Cc1ccc(-c2noc(C(CO)(CO)NS(C)(=O)=O)n2)cc1NC(=O)c1cnc2ccccn12 [F17, N-(5-(5-(1,3-dihydroxy-2-(methylsulfonamido)propan-2-yl)-1,2,4-oxadiazol-3-yl)-2-methylphenyl)imidazo[1,2-a]pyridine-3-carboxamide]",
156,,CC(=O)OCc1nc(-c2ccc(C)c(NC(=O)c3cnc4ccccn34)c2)no1 [F172],
281,,Cc1ccc(-c2noc(C(C)(C)O)n2)cc1NC(=O)c1cnc2ccccn12 [F173],
219,,Cc1nc(-c2ccc(C)c(NC(=O)c3cnc4cc(C#N)ccn34)c2)no1 [F187],
772,,Cc1ccc(-c2noc(CCCNS(C)(=O)=O)n2)cc1NC(=O)c1cnc2ccccn12 [F115],
183,,CO[C@@H](C)C(=O)NCc1nc(-c2ccc(C)c(NC(=O)c3cnc4ccccn34)c2)no1 [F133],
,79,Cc1ccc(-c2noc(CCC(C)(C)O)n2)cc1NC(=O)c1cnc2cc(N3CCCC3=O)ccn12 [F62],
,59,CCN(Cc1nc(-c2ccc(C)c(NC(=O)c3cnc4ccccn34)c2)no1)C(=O)OC [F23],
889,,Cc1ccc(-c2noc([C@H](C)N)n2)cc1NC(=O)c1cnc2ccccn12 [F125],
,54,Cc1ccc(-c2noc(CCC(C)(O)C(F)(F)F)n2)cc1NC(=O)c1cnc2ccc(F)cn12 (stereo not shown) [F71],
294,,Cc1ccc(-c2noc(C[C@@H](C)NC(=O)OC(C)(C)C)n2)cc1NC(=O)c1cnc2ccccn12 [F142],
,19,Cc1nc(-c2ccc(C)c(NC(=O)c3cnc4ccc(-c5c(C)nn(C)c5C)cn34)c2)no1 [F100],
226,,Cc1nc(-c2ccc(C)c(NC(=O)c3cnc4ccc(-c5csc(N6CCOCC6)n5)cn34)c2)no1 [F176],
287,,Cc1nc(-c2ccc(C)c(NC(=O)c3cnc4ccc(CCC(C)(C)O)cn34)c2)no1 [F181],

IC50 [1] [nM],IC50 [2] [nM],Compound,other results
,13,Cc1ccn2c(C(=O)Nc3cc(-c4noc(CCC(O)C(F)(F)F)n4)ccc3C)cnc2c1 (stereo not shown) [F253],
341,,Cc1nc(-c2ccc(C)c(NC(=O)c3cnc4ccc(-c5sc(C(=O)O)nc5C)cn34)c2)no1 [F247],
240,,COC(=O)NCc1nc(-c2ccc(C)c(NC(=O)c3cnc4cc(CCC(C)=O)ccn34)c2)no1 [F177],
,25,[2H]c1c([2H])c([2H])n2c(C(=O)Nc3cc(-c4noc(CCC(C)(O)C(F)(F)F)n4)ccc3C)cnc2c1[2H] (stereo not shown) [F73],
,38,Cc1nc(-c2ccc(C)c(NC(=O)c3cnc4ccc(-c5scnc5C)cn34)c2)no1 [F97],
,49,CCOCc1nc(-c2ccc(C)c(NC(=O)c3cnc4ccccn34)c2)no1 [F12],
182,,Cc1nc(-c2ccc(C)c(NC(=O)c3cnc4ccc(-c5nc(C)c(C)s5)cn34)c2)no1 [F237],
174,,CCC(C)(O)c1nc(-c2ccc(C)c(NC(=O)c3cnc4ccccn34)c2)no1 (stereo not shown) [F205],
255,,Cc1ccc(-c2noc(C(C)O)n2)cc1NC(=O)c1cnc2ccccn12 (stereo not shown) [F198],
,44,Cc1ccc(-c2noc(CCC(C)(O)C(F)(F)F)n2)cc1NC(=O)c1cnc2cc(F)ccn12 (stereo not shown) [F70],
,89,CCN(Cc1nc(-c2ccc(C)c(NC(=O)c3cnc4ccccn34)c2)no1)S(C)(=O)=O [F22],
> 10000,,COC(=O)NCc1nc(-c2ccc(C)c(NC(=O)c3cnc4cc(CCC(=O)O)ccn34)c2)no1 [F232],
1060,,Cc1ccc(-c2noc(C(C)(C)N)n2)cc1NC(=O)c1cnc2ccccn12 [F218],
,51,Cc1ccn2c(C(=O)Nc3cc(-c4noc(CC(O)(C(F)(F)F)C(F)(F)F)n4)ccc3C)cnc2c1 [F254],
,41,Cc1ccc(-c2noc(CC[C@@](C)(O)C(F)(F)F)n2)cc1NC(=O)c1cnc2cc(F)ccn12 [F89],
,98,Cc1ccc(-c2noc([C@@H](C)NS(C)(=O)=O)n2)cc1NC(=O)c1cnc2ccccn12 [F18],
,75,"Cc1nc(-c2ccc(C)c(NC(=O)c3cnc4ccc(-c5sc(C(=O)NCCN6CCOCC6)nc5C)cn34)c2)no1 [F262, 4-methyl-5-(3-((2-methyl-5-(5-methyl-1,2,4-oxadiazol-3-yl)phenyl)carbamoyl)imidazo[1,2-a]pyridin-6-yl)-N-(2-morpholinoethyl)thiazole-2-carboxamide]",
,70,COc1ccc2ncc(C(=O)Nc3cc(-c4noc(CCC(C)(C)O)n4)ccc3C)n2c1 [F56],
,67,CCN(CC)C(=O)CCc1nc(-c2ccc(C)c(NC(=O)c3cnc4ccccn34)c2)no1 [F4],
198,,Cc1cc(F)c(-c2noc(CNC(=O)OC(C)(C)C)n2)cc1NC(=O)c1cnc2ccccn12 [F156],
,29,Cc1ccc2ncc(C(=O)Nc3cc(-c4noc(CC[C@@](C)(O)C(F)(F)F)n4)ccc3C)n2c1 [F87],
122,,Cc1ccc(-c2noc(C(C)C)n2)cc1NC(=O)c1cnc2ccccn12 [F189],

Compound,IC50 [1] [nM],IC50 [2] [nM],other results
Cc1nc(-c2ccc(C)c(NC(=O)c3cnc4ccccn34)c2)no1 [F11],,86,
"(S)-1,1,1-trifluoro-2-methyl-4-(3-(4-methyl-3-(7-methylimidazo[1,2-a]pyridine-3-carboxamido)phenyl)-1,2,4-oxadiazol-5-yl)butan-2-yl dihydrouen phosphate [F268]",,26,
